Values quoted from earlier work, collected in patent publication US20140148399A1, “Compositions and methods for treating or ameliorating obesity or for reducing diabetic hypercholesterolemia” (UNIVERSITY OF TSUKUBA, priority 2012, published 2014).

Tested on: 3T3-L1 cells

COc1cc(-c2oc3cc(O)cc(O)c3c(=O)c2O)ccc1O [Isorhamnetin]
adiponectin expression and secretion: reduces | C/EBP-α and PPAR-γ mRNA levels (3T3-L1 adipocyte differentiation): reducing | adipogenesis in 3T3-L1 cells (by inhibiting 3T3-L1 adipocyte differentiation): represses adipogenesis
